SMILES strings stand for the structures.

In this assay the test system is HEK293T cells carrying the ATF4 luciferase reporter. Description: ATF4-Luc assay, in vitro model of Vanishing Cell White Matter Disease (VWMD). The format is cell-based. Conditions: Homo sapiens, HEK-293T, 1 μg/mL tunicamycin, 7 hours, One Glo luminescence. In short, it runs like this:
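Compound at 200 nM and tunicamycin at 1 μg/mL were given together for 7 h to HEK293T cells stably transduced with an ATF4 5′-UTR-driven firefly luciferase reporter. Read-out by luminescence, reported as EC50.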
Regarding `O=C(COc1ccc(Cl)c(Cl)c1)NC12CC(NC(=O)c3cnc(C(F)(F)F)s3)(C1)C2` [Compound 646, N-{3-[2-(3,4-dichlorophenoxy)acetamido]bicyclo[1.1.1]pentan-1-yl}-2-(trifluoromethyl)-1,3-thiazole-5-carboxamide], the EC50 fell in the range of 50 to 250 nM.
Next, `O=C(COc1ccc(Cl)c(F)c1)NC12CC(NC(=O)c3nc(C4CC4)cs3)(C1)C2` [Compound 590, N-{3-[2-(4-chloro-3-fluorophenoxy)acetamido]bicyclo[1.1.1]pentan-1-yl}-4-cyclopropyl-1,3-thiazole-2-carboxamide]: 50 to 250 nM; `Cc1csc(C(=O)NC23CC(NC(=O)COc4ccc(Cl)c(F)c4)(C2)C3)n1` [Compound 450, N-{3-[2-(4-chloro-3-fluorophenoxy)acetamido]bicyclo[1.1.1]pentan-1-yl}-4-methyl-1,3-thiazole-2-carboxamide]: 50 to 250 nM; `Cc1nn(C)c(C(=O)NC23CCC(NC(=O)COc4ccc5c(c4)OC(F)(F)O5)(CC2)[C@@H](O)C3)c1F` [Compound 637, N-[(3S)-4-{2-[(2,2-difluoro-2H-1,3-benzodioxol-5-yl)oxy]acetamido}-3-hydroxybicyclo[2.2.2]octan-1-yl]-4-fluoro-1,3-dimethyl-1H-pyrazole-5-carboxamide]: 250 to 1000 nM.
Next, `Cn1cc(Cl)c(C(=O)NC23CC(NC(=O)COc4ccc(Cl)c(F)c4)(C2)C3)n1` [Compound 871, 4-chloro-N-{3-[2-(4-chloro-3-fluorophenoxy)acetamido]bicyclo[1.1.1]pentan-1-yl}-1-methyl-1H-pyrazole-3-carboxamide]: 250 to 1000 nM.
Consider `O=C(COc1ccc(Cl)c(F)c1)NC12CC(NC(=O)c3cc(CNC(=O)C4CC4)ccn3)(C1)C2` [Compound 391, N-{3-[2-(4-chloro-3-fluorophenoxy)acetamido]bicyclo[1.1.1]pentan-1-yl}-4-{[(cyclopropanecarbonyl)amino]methyl}pyridine-2-carboxamide], for which the EC50 was 250 to 1000 nM.
Regarding `CC(C)(C)OC(=O)NCc1ccnc(C(=O)NC23CC(NC(=O)COc4ccc(Cl)c(F)c4)(C2)C3)c1` [Compound 192, tert-butyl {[2-({3-[2-(4-chloro-3-fluorophenoxy)acetamido]bicyclo[1.1.1]pentan-1-yl}carbamoyl)pyridin-4-yl]methyl}carbamate], the EC50 lay within 250 to 1000 nM.
Next, `Cc1ncc(C(=O)NC23CCC(NC(=O)COc4ccc(Cl)c(F)c4)(CC2)[C@@H](O)C3)nc1C` [Compound 672, N-{(3S)-4-[2-(4-chloro-3-fluorophenoxy)acetamido]-3-hydroxybicyclo[2.2.2]octan-1-yl}-5,6-dimethylpyrazine-2-carboxamide]: 50 to 250 nM; `Cn1nc(C(=O)NC23CC(NC(=O)COc4ccc(Cl)c(F)c4)(C2)C3)cc1C(F)(F)F` [Compound 789, N-{3-[2-(4-chloro-3-fluorophenoxy)acetamido]bicyclo[1.1.1]pentan-1-yl}-1-methyl-5-(trifluoromethyl)-1H-pyrazole-3-carboxamide]: 50 to 250 nM.
Then `O=C(COc1ccc(Cl)c(F)c1)NC12CC(NC(=O)c3ncc(F)cc3F)(C1)C2` [Compound 910, N-{3-[2-(4-chloro-3-fluorophenoxy)acetamido]bicyclo[1.1.1]pentan-1-yl}-3,5-difluoropyridine-2-carboxamide], with 50 to 250 nM.
Take `Cc1cc(C(=O)NC23CCC(NC(=O)COc4ccc(Cl)c(F)c4)(CC2)[C@@H](O)C3)sn1` [Compound 679, N-{(3S)-4-[2-(4-chloro-3-fluorophenoxy)acetamido]-3-hydroxybicyclo[2.2.2]octan-1-yl}-3-methyl-1,2-thiazole-5-carboxamide]: the EC50 was under 50 nM.
Then `O=C(COc1ccc(Cl)c(F)c1)NC12CC(Nc3ccnc4cc(Cl)ccc34)(C1)C2` [Compound 384, 2-(4-chloro-3-fluorophenoxy)-N-{3-[(7-chloroquinolin-4-yl)amino]bicyclo[1.1.1]pentan-1-yl}acetamide], with under 50 nM; and `CS(=O)(=O)c1ccccc1C(=O)NC12CC(NC(=O)COc3ccc(Cl)c(F)c3)(C1)C2` [Compound 827, N-{3-[2-(4-chloro-3-fluorophenoxy)acetamido]bicyclo[1.1.1]pentan-1-yl}-2-(methanesulfonyl)benzamide], with over 2000 nM; and `O=C(COc1ccc(Cl)c(F)c1)NC12CCC(NC(=O)c3csc(C4CC4)n3)(CC1)C[C@@H]2O` [Compound 751, N-{(3S)-4-[2-(4-chloro-3-fluorophenoxy)acetamido]-3-hydroxybicyclo[2.2.2]octan-1-yl}-2-cyclopropyl-1,3-thiazole-4-carboxamide], with under 50 nM.
Then `Cc1nc2ccc(C(=O)NC34CC(NC(=O)COc5ccc(Cl)c(F)c5)(C3)C4)cc2o1` [Compound 341, N-{3-[2-(4-chloro-3-fluorophenoxy)acetamido]bicyclo[1.1.1]pentan-1-yl}-2-methyl-1,3-benzoxazole-6-carboxamide], with over 2000 nM.
Regarding `O=C(COc1ccc(Cl)c(F)c1)NC12CC(NC(=O)c3cscn3)(C1)C2` [Compound 308, N-{3-[2-(4-chloro-3-fluorophenoxy)acetamido]bicyclo[1.1.1]pentan-1-yl}-1,3-thiazole-4-carboxamide], the EC50 is 250 to 1000 nM.
For `O=C(COc1ccc(Cl)c(F)c1)NC12CC(NC(=O)c3cnc(C4CC4)nc3)(C1)C2` [Compound 888, N-{3-[2-(4-chloro-3-fluorophenoxy)acetamido]bicyclo[1.1.1]pentan-1-yl}-2-cyclopropylpyrimidine-5-carboxamide], the EC50 lay in the range of 50 to 250 nM.
Next, `O=C(COc1ccc(Cl)c(Cl)c1)NC12CC(NC(=O)c3ccc(CO)cn3)(C1)C2` [Compound 160, N-{3-[2-(3,4-dichlorophenoxy)acetamido]bicyclo[1.1.1]pentan-1-yl}-5-(hydroxymethyl)pyridine-2-carboxamide]: 250 to 1000 nM; `Cc1nn(C)c(C(=O)NC23CCC(NC(=O)COc4ccc(Cl)c(F)c4)(CC2)C[C@@H]3O)c1F` [Compound 498, N-{(2S)-4-[2-(4-chloro-3-fluorophenoxy)acetamido]-2-hydroxybicyclo[2.2.2]octan-1-yl}-4-fluoro-1,3-dimethyl-1H-pyrazole-5-carboxamide]: under 50 nM; `O=C(COc1ccc(Cl)c(F)c1)NC12CC(NC(=O)c3cc(CCO)ccn3)(C1)C2` [Compound 282, N-{3-[2-(4-chloro-3-fluorophenoxy)acetamido]bicyclo[1.1.1]pentan-1-yl}-4-(2-hydroxyethyl)pyridine-2-carboxamide]: 250 to 1000 nM.
Then `NS(=O)(=O)c1cccc(C(=O)NC23CC(NC(=O)COc4ccc(Cl)c(F)c4)(C2)C3)c1` [Compound 768, N-{3-[2-(4-chloro-3-fluorophenoxy)acetamido]bicyclo[1.1.1]pentan-1-yl}-3-sulfamoylbenzamide], with over 2000 nM; and `Cn1ncc2cc(C(=O)NC34CC(NC(=O)COc5ccc(Cl)c(F)c5)(C3)C4)cnc21` [Compound 620, N-{3-[2-(4-chloro-3-fluorophenoxy)acetamido]bicyclo[1.1.1]pentan-1-yl}-1-methyl-1H-pyrazolo[3,4-b]pyridine-5-carboxamide], with 1000 to 2000 nM; and `CCc1cc(C(=O)NC23CC(NC(=O)COc4ccc(Cl)c(F)c4)(C2)C3)on1` [Compound 323, N-{3-[2-(4-chloro-3-fluorophenoxy)acetamido]bicyclo[1.1.1]pentan-1-yl}-3-ethyl-1,2-oxazole-5-carboxamide], with 250 to 1000 nM.
In the case of `Cc1cc(C(=O)NC23CC(NC(=O)COc4ccc(Cl)c(Cl)c4)(C2)C3)cnc1C` [Compound 693, N-{3-[2-(3,4-dichlorophenoxy)acetamido]bicyclo[1.1.1]pentan-1-yl}-5,6-dimethylpyridine-3-carboxamide], the half-maximal effective concentration (EC50) is 250 to 1000 nM.
For the compound `CCNc1ccc(C(=O)NC23CC(NC(=O)COc4ccc(Cl)c(F)c4)(C2)C3)nc1` [Compound 269, N-{3-[2-(4-chloro-3-fluorophenoxy)acetamido]bicyclo[1.1.1]pentan-1-yl}-5-(ethylamino)pyridine-2-carboxamide], the EC50 is 250 to 1000 nM.
Then `CCc1nc(C(=O)NC23CC(NC(=O)COc4ccc(Cl)c(F)c4)(C2)C3)co1` [Compound 251, N-{3-[2-(4-chloro-3-fluorophenoxy)acetamido]bicyclo[1.1.1]pentan-1-yl}-2-ethyl-1,3-oxazole-4-carboxamide], with 50 to 250 nM; and `Cc1ncc(C(=O)NC23CCC(NC(=O)COc4ccc(Cl)c(F)c4)(CC2)C(O)C3)s1` (stereo not shown) [Compound 471, N-{4-[2-(4-chloro-3-fluorophenoxy)acetamido]-3-hydroxybicyclo[2.2.2]octan-1-yl}-2-methyl-1,3-thiazole-5-carboxamide], with 50 to 250 nM.
For the compound `O=C(COc1ccc(Cl)c(F)c1)NC12CC(NC(=O)c3cncs3)(C1)C2` [Compound 309, N-{3-[2-(4-chloro-3-fluorophenoxy)acetamido]bicyclo[1.1.1]pentan-1-yl}-1,3-thiazole-5-carboxamide], the EC50 is 250 to 1000 nM.
Turning to `O=C(COc1ccc(Cl)c(F)c1)NC12CCC(NC(=O)c3cnc(C(F)F)cn3)(CC1)C(F)C2` (stereo not shown) [Compound 373, N-{4-[2-(4-chloro-3-fluorophenoxy)acetamido]-2-fluorobicyclo[2.2.2]octan-1-yl}-5-(difluoromethyl)pyrazine-2-carboxamide], the EC50 lay in the range of 250 to 1000 nM.
Next, `O=C(COc1ccc(Cl)c(F)c1)NC12CC(NC(=O)c3cnc4ccccn34)(C1)C2` [Compound 258, N-{3-[2-(4-chloro-3-fluorophenoxy)acetamido]bicyclo[1.1.1]pentan-1-yl}imidazo[1,2-a]pyridine-3-carboxamide]: 250 to 1000 nM.
Take `N#Cc1ccc(C(=O)NC23CCC(NC(=O)COc4ccc(Cl)c(F)c4)(CC2)CC3O)cc1` (stereo not shown) [Compound 210, N-{4-[2-(4-chloro-3-fluorophenoxy)acetamido]-2-hydroxybicyclo[2.2.2]octan-1-yl}-4-cyanobenzamide]: the EC50 lay in the range of 250 to 1000 nM.

For orientation: EC50 means the concentration at which the effect is half-maximal.
